ChEMBL document CHEMBL5465560, “Selectivity Literature for EUbOPEN Chemogenomic Library” (2024)
Each block holds one molecule with its values, some of them ahead of it.

Columns and labels:
[1] = biological target: BMP-2-inducible protein kinase (Homo sapiens) (UniProt Q9NSY1); details: at 10 µM
[2] = biological target: Interleukin-1 receptor-associated kinase 1 (Homo sapiens) (UniProt P51617); details: at 10 µM
[3] = biological target: Protein-tyrosine kinase 6 (Homo sapiens, UniProt Q13882); test: Selectivity interaction (Ambit KINOMEscan and KiNATiv profiling in Jurkat cells) EUB0000090b PTK6; assay type: cell-based; details: at 1 µM
[4] = biological target: Tyrosine-protein kinase HCK (Homo sapiens) (UniProt P08631); test: Selectivity interaction (ActivX KiNativ screen (kinase selectivity in THP-1 cell lysates)) EUB0000639a HCK; assay type: subcellular; details: lysate
[5] = biological target: Activin receptor type-2B (Homo sapiens) (UniProt Q13705); test: Selectivity interaction (LanthaScreen Eu Kinase Binding Assay) EUB0001632a ACVR2B; details: at 10 µM
[6] = biological target: RAC-alpha serine/threonine-protein kinase (Homo sapiens, UniProt P31749); details: at 10 µM
[7] = biological target: T1, Serine/threonine-protein kinase RIO3 (Homo sapiens) (UniProt O14730); test: Selectivity interaction (KinomeScan (DiscoverX)) EUB0000595a RIOK3; details: at 10 µM
T1 sequence (whole entry): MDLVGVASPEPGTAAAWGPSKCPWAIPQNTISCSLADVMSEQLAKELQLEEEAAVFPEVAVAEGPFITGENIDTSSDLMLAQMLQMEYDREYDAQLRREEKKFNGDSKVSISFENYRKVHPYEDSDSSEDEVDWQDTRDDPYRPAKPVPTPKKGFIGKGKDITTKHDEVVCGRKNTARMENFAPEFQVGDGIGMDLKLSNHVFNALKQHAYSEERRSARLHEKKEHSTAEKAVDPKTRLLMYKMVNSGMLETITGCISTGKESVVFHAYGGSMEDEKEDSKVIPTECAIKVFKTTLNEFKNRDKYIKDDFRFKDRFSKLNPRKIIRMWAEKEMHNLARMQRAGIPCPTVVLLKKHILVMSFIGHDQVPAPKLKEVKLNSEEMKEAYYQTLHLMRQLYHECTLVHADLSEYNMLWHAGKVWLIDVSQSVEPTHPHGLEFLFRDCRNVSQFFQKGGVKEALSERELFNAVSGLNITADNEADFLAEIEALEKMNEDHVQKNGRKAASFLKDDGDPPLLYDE

[8] = biological target: Casein kinase I isoform delta (Homo sapiens, UniProt P48730); test: Selectivity interaction (KinomeScan (DiscoverX)) EUB0001079a CSNK1D; details: at 1 µM
[9] = biological target: Mitogen-activated protein kinase 3 (Homo sapiens, UniProt P27361); test: Selectivity interaction (ProQinase) EUB0000171b MAPK3
[10] = biological target: Serine/threonine-protein kinase 32C (Homo sapiens) (UniProt Q86UX6); test: Selectivity interaction (KinomeScan (DiscoverX)) EUB0000092b STK32C; details: at 10 µM
[11] = biological target: Cyclin-dependent kinase 15 (Homo sapiens) (UniProt Q96Q40); test: Selectivity interaction (KinomeScan (DiscoverX)) EUB0000655a CDK15; details: at 10 µM
[12] = biological target: Serine/threonine-protein kinase 32A (Homo sapiens) (UniProt Q8WU08); test: Selectivity interaction (KinomeScan (DiscoverX)) EUB0001619a STK32A; details: at 1 µM
[13] = biological target: T2, Inhibitor of nuclear factor kappa-B kinase subunit epsilon (Homo sapiens) (UniProt Q14164); test: Selectivity interaction (KinomeScan (DiscoverX)) EUB0000618a IKBKE; details: at 10 µM
T2 sequence (whole entry): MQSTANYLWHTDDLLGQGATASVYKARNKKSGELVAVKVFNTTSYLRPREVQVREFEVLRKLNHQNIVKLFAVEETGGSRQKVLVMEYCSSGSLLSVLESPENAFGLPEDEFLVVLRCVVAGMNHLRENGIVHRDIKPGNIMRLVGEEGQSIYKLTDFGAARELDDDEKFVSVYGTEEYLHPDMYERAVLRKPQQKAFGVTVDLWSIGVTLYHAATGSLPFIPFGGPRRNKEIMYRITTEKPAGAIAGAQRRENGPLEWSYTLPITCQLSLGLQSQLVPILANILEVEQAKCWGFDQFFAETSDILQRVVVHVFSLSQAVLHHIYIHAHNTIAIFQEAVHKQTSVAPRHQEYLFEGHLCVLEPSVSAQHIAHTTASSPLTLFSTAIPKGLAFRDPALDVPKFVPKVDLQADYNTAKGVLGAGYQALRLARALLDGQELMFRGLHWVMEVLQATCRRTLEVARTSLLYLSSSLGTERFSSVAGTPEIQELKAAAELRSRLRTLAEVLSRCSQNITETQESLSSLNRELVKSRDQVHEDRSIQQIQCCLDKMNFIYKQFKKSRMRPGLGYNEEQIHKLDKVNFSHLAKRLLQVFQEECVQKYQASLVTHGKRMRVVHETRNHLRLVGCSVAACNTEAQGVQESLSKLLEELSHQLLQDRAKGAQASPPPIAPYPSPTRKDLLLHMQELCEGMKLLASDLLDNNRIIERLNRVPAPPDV

[14] = biological target: T3, Inhibitor of nuclear factor kappa-B kinase subunit alpha (Homo sapiens) (UniProt O15111); test: Selectivity interaction (KinomeScan (DiscoverX)) EUB0000618a CHUK; details: at 10 µM
T3 sequence (whole entry): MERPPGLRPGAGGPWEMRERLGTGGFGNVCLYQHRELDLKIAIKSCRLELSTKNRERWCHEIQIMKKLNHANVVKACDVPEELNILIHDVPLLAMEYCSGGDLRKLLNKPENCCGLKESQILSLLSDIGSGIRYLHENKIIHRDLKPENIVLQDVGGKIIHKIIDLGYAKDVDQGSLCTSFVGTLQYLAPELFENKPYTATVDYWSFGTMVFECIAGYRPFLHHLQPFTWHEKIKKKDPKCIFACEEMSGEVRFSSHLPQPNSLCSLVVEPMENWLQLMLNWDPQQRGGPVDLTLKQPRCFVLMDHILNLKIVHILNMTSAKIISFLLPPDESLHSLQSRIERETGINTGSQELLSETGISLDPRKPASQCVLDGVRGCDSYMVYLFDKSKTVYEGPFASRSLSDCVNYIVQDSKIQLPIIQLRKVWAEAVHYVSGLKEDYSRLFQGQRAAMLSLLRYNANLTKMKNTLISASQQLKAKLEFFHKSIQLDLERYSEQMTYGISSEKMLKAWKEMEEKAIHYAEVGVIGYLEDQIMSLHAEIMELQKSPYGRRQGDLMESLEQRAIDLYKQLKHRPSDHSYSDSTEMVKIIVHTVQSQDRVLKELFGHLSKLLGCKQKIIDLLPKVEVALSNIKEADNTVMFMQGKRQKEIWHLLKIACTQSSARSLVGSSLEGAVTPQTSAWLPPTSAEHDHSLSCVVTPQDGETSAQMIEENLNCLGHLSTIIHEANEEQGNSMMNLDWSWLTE

[15] = biological target: Tyrosine-protein kinase Lck (Homo sapiens, UniProt P06239); test: Selectivity interaction (KinomeScan (DiscoverX)) EUB0000666a LCK; details: at 10 µM

Chain of Tyrosine-protein kinase HCK (Homo sapiens) (P08631 2-526 limits assumed): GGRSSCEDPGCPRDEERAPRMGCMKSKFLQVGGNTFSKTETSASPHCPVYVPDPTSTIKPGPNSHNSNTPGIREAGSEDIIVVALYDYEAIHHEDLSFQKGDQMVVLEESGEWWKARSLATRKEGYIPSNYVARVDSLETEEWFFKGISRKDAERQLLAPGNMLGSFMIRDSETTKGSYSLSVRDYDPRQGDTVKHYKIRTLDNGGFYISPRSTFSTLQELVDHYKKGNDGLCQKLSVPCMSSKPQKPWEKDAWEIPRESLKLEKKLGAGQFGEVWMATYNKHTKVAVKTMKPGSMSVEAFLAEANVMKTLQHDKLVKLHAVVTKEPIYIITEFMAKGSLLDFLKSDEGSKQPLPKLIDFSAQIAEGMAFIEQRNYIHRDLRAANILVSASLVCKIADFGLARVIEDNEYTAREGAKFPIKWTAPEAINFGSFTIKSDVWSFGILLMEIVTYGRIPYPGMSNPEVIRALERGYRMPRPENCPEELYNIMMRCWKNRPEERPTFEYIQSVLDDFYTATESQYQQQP
Chain of Mitogen-activated protein kinase 3 (P27361 whole entry): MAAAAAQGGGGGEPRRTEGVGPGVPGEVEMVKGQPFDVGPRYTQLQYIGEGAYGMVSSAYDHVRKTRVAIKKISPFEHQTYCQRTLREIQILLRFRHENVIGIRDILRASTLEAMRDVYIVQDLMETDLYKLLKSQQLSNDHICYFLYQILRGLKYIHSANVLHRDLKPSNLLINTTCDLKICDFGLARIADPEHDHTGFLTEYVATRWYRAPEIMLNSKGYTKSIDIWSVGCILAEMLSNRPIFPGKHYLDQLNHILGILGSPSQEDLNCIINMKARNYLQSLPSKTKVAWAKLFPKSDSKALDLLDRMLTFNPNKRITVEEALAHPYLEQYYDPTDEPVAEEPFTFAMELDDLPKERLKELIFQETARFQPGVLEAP
Chain of Protein-tyrosine kinase 6 (Q13882 whole entry, looked up): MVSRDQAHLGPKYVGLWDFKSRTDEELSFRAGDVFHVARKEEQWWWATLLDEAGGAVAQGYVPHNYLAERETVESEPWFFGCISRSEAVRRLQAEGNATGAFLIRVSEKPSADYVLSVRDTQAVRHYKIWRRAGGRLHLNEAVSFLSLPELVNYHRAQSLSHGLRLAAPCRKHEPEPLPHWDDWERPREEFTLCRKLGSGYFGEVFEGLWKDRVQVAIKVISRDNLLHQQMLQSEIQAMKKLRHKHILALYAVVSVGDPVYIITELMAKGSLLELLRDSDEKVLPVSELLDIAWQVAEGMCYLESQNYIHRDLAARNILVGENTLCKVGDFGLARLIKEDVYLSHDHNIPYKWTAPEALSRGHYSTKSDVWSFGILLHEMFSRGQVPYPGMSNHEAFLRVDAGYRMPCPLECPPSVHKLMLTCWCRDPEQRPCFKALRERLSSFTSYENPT
Chain of Cyclin-dependent kinase 15 (Homo sapiens) (Q96Q40 whole entry): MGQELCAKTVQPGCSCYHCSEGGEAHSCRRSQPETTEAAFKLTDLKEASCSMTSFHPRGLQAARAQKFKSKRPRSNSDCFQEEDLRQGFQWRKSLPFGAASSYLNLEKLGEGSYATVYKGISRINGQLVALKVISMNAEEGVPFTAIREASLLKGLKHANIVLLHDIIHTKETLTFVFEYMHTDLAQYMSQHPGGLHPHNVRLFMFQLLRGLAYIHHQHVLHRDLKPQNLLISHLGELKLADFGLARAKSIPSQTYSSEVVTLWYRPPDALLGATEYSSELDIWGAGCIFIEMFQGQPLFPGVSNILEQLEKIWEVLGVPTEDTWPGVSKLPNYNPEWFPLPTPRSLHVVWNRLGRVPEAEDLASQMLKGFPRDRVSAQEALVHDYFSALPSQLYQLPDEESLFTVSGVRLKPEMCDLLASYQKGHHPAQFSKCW
Chain of Casein kinase I isoform delta (P48730 whole entry, looked up, canonical isoform): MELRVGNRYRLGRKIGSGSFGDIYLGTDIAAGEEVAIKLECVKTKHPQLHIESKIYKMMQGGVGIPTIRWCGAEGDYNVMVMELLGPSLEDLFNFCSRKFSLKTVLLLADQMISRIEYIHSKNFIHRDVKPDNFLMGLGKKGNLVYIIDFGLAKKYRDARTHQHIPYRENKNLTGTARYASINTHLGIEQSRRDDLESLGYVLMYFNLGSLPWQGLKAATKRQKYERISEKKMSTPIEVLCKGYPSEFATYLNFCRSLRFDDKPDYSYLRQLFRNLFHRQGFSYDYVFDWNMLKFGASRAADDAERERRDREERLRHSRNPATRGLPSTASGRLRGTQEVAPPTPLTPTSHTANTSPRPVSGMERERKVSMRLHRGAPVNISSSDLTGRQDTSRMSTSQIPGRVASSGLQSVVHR
Chain of BMP-2-inducible protein kinase (Homo sapiens) (Q9NSY1 whole entry, looked up): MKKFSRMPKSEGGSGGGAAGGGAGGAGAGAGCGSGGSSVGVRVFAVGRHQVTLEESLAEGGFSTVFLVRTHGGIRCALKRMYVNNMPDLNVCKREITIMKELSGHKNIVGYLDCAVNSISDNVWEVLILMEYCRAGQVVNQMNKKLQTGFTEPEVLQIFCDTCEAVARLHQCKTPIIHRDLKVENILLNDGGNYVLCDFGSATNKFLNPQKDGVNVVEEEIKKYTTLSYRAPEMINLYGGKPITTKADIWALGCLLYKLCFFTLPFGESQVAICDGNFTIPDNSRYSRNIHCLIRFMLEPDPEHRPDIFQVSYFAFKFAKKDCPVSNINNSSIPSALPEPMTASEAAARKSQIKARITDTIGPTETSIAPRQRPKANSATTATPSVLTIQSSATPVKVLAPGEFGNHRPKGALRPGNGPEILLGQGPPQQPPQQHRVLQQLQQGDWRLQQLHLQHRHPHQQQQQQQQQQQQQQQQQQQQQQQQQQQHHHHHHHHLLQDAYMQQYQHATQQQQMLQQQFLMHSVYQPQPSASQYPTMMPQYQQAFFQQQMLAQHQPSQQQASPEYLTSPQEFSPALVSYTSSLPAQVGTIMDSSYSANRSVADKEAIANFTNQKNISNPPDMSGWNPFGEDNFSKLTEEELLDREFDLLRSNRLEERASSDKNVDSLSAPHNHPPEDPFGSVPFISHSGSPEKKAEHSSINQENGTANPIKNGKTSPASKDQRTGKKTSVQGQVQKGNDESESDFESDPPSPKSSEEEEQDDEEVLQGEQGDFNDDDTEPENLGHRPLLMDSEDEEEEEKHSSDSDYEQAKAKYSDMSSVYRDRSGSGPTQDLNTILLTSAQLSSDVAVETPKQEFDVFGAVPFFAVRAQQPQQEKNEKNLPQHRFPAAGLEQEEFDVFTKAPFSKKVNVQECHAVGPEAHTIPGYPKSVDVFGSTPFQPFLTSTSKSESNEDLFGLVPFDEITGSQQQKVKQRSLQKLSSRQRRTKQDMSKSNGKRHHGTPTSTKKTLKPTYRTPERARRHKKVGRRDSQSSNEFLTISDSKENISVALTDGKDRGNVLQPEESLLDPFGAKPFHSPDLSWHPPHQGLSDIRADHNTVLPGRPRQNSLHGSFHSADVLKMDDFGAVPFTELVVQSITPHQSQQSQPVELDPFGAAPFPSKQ
Chain of Interleukin-1 receptor-associated kinase 1 (Homo sapiens) (P51617 whole entry, looked up): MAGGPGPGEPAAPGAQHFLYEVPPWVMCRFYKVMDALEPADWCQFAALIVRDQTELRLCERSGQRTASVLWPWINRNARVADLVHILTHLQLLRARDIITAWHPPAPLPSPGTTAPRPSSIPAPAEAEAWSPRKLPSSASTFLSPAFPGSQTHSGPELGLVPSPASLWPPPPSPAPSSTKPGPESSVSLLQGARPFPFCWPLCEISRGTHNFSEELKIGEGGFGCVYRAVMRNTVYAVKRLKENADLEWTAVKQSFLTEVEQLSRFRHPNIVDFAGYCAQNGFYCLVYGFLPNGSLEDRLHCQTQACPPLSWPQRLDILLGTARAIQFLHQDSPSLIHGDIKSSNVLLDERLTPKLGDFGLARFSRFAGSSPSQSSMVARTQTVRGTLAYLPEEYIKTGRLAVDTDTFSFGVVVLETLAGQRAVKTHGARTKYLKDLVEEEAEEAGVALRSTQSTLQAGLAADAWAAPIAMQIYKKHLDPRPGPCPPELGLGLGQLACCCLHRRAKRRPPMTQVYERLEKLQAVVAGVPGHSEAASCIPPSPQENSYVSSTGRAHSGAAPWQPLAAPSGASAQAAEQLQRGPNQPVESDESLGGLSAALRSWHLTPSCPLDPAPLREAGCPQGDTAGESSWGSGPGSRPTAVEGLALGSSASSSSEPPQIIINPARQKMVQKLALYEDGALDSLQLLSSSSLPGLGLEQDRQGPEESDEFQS
Chain of RAC-alpha serine/threonine-protein kinase (P31749 whole entry): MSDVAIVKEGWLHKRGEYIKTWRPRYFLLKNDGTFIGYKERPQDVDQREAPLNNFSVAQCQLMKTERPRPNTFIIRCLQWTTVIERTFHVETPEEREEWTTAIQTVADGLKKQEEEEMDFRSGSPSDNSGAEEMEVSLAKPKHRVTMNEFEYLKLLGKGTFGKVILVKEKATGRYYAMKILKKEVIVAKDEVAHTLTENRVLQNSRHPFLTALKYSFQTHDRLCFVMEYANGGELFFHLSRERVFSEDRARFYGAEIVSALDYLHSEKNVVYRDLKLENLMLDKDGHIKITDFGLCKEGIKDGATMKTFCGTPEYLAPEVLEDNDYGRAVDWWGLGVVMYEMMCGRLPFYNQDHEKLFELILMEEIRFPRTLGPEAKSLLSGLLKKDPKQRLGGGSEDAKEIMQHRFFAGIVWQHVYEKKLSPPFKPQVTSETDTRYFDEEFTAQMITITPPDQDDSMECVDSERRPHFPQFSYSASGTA
Chain of Serine/threonine-protein kinase 32A (Homo sapiens) (Q8WU08 whole entry): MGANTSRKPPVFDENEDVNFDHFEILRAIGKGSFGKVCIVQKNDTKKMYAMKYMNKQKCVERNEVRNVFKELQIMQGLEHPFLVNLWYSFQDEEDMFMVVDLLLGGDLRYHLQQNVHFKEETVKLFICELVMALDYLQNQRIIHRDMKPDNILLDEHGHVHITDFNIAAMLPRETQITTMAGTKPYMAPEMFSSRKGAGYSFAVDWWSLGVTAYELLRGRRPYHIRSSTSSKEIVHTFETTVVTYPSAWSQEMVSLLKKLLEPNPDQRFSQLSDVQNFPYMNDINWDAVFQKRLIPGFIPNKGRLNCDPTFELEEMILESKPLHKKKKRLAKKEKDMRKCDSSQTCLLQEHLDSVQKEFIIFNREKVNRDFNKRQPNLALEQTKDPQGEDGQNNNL

Compound: Cc1cc([C@@H](C)Nc2ccccc2C(=O)O)c2nc(N3CCOCC3)cc(=O)n2c1 [AZD-6482]
% of control [1]: 94%
% of control [2]: 90%

Compound: CN(C)C/C=C/C(=O)Nc1ccc(C(=O)N2CCCC(Nc3ncc(Cl)c(-c4c[nH]c5ccccc45)n3)C2)cc1 (stereo not given)
% of control [3]: 84%

% of inhibition ([4]; at 0.01 µM): -5.9%
% of inhibition ([4]; at 0.04 µM): -8.6%
% of inhibition ([4]; at 0.2 µM): -9.9%
% of inhibition ([4]; at 1 µM): -4.8%
% of inhibition ([4]; at 5 µM): -3.1%
Compound: CC[C@@H]1[C@H](F)C(=O)N[C@@H]1COc1nccc2cc(C(N)=O)c(OC)cc12 [ZIMLOVISERTIB]

% of inhibition [5]: -21.2%
Compound: Cn1cc(-n2cnc3c(NCc4nc5cc(Cl)c(Cl)cc5[nH]4)nc(N4CCOCC4)nc32)cn1

% of control [6]: 100%
Compound: CCN(CC)CCCCNc1ncc2cc(-c3cc(OC)cc(OC)c3)c(NC(=O)NC(C)(C)C)nc2n1

Compound: COCC(=O)NC/C=C/c1ccc2ncnc(Nc3ccc(Oc4ccc(C)nc4)c(C)c3)c2c1 [CP-724714]
% of control [7]: 100%

Compound: Nc1cnc(N2CCc3cc(S(=O)(=O)Nc4c(F)cc(Cl)cc4F)cc(N4CCCC4=O)c32)nc1 [TP-020n]
% of control [8]: 98%

% of control ([9]; at 1 µM): 101%
% of control ([9]; at 5 µM): 99%
Compound: C=CC(=O)Nc1cccc(C(=O)Nc2ccc(Nc3cc(-c4[nH]c(SC)nc4C)ccn3)cc2)c1

Compound: CCC(=O)N1CCN(c2ccc(-n3c(=O)ccc4cnc5ccc(-c6cnc7ccccc7c6)cc5c43)cc2C(F)(F)F)CC1
% of control [10]: 100%

Compound: CN(C)CCOc1ccc(-c2nc(-c3ccncc3)c(-c3ccc4c(c3)CC/C4=N\O)[nH]2)cc1
% of control [11]: 100%

Compound: N#Cc1cccc(-c2c[nH]c3ncnc(N4CCOCC4)c23)c1
% of control [12]: 100%

Compound: O[C@H]1CC[C@H](Nc2ncc3nc(Nc4c(F)cc(F)cc4F)n([C@H]4CCOC4)c3n2)CC1
% of control [13]: 85%
% of control [14]: 86%

Compound: O=C(NOC[C@H](O)CO)c1ccc(F)c(F)c1Nc1ccc(I)cc1F
% of control [15]: 88%
